This experiment concerns the target human GluN1/GluN2B NMDA receptors (Homo sapiens, UniProt Q05586+Q13224). Briefly: Cell-based calcium flux (FLIPR) assay on cloned human NR1/NR2B ion channels expressed in mammalian cells. The conditions noted are these: standard assay; human GluN1/GluN2B, calcium flux (FLIPR), glutamate ~EC80. As to the method: Effects of Test Articles on Cloned Human NR1/NR2B Ion Channels Expressed in Mammalian Cells
NMDA receptors are ion channels that are highly permeable to Ca^2+ ions, rendering it possible to monitor NMDA receptor function using cell-based calcium flux assay. In this assay, co-agonists glutamate and glycine are added to cells heterologously expressing human GluN1/GluN2B NMDA receptors to initiate cellular Ca^2+ influx. The time course of the changes in intracellular calcium is measured using a fluorescent dye and a FLIPR (Fluorometric Imaging Plate Reader) device.
Twenty four hours before measurements, the expression of the NMDA receptors in the stable cell line is induced with Tet-On inducible system in the presence of a non-selective NMDA receptor blocker. On the day of the experiment, cell culture media is carefully washed and the cells are loaded with Calcium 5 Dye Kit (Molecular Devices) in dye loading buffer containing 149 mM NaCl, 4 mM KCl, 2 mM CaCl2, and 1.5 mM MgCl2, 10 mM HEPES and 5 mM D-glucose; pH 7.4. After 1 h incubation at the room temperature, the dye is washed away with the assay buffer (149 mM NaCl (standard assay) or 150 mM (HTS assay), 4 mM KCl (standard assay) or 3 mM (HTS assay), 2 mM CaCl2, 0.01 mM EDTA, 10 mM HEPES and 5 mM D-glucose; pH 7.4) In the FLIPR TETRA reader, various concentrations of the test compounds are added to the cells for 5 min while fluorescence is monitored to detect potential agonist activity. Next, co-agonists, glutamate and glycine are added for another 5 minutes. The concentration of glutamate corresponding to ˜EC80 (standard assay) or EC40 (HTS assay) is used to maximize the assay's signal window or the ability to detect NMDA receptor antagonists and negative allosteric modulators, respectively. A saturating concentration (10 μM) of glycine is also present in the assay. […] The fluorescent signal in the presence of test compounds is quantified and normalized to the signal defined by the appropriate control wells.
In general terms: Calcium flux is commonly read through the fluorescence of an indicator in the cells.

What is called IC50 is the concentration that gives 50% inhibition.

human GluN1/GluN2B NMDA receptors, sequence (Q13224 27-1484, other chains not shown): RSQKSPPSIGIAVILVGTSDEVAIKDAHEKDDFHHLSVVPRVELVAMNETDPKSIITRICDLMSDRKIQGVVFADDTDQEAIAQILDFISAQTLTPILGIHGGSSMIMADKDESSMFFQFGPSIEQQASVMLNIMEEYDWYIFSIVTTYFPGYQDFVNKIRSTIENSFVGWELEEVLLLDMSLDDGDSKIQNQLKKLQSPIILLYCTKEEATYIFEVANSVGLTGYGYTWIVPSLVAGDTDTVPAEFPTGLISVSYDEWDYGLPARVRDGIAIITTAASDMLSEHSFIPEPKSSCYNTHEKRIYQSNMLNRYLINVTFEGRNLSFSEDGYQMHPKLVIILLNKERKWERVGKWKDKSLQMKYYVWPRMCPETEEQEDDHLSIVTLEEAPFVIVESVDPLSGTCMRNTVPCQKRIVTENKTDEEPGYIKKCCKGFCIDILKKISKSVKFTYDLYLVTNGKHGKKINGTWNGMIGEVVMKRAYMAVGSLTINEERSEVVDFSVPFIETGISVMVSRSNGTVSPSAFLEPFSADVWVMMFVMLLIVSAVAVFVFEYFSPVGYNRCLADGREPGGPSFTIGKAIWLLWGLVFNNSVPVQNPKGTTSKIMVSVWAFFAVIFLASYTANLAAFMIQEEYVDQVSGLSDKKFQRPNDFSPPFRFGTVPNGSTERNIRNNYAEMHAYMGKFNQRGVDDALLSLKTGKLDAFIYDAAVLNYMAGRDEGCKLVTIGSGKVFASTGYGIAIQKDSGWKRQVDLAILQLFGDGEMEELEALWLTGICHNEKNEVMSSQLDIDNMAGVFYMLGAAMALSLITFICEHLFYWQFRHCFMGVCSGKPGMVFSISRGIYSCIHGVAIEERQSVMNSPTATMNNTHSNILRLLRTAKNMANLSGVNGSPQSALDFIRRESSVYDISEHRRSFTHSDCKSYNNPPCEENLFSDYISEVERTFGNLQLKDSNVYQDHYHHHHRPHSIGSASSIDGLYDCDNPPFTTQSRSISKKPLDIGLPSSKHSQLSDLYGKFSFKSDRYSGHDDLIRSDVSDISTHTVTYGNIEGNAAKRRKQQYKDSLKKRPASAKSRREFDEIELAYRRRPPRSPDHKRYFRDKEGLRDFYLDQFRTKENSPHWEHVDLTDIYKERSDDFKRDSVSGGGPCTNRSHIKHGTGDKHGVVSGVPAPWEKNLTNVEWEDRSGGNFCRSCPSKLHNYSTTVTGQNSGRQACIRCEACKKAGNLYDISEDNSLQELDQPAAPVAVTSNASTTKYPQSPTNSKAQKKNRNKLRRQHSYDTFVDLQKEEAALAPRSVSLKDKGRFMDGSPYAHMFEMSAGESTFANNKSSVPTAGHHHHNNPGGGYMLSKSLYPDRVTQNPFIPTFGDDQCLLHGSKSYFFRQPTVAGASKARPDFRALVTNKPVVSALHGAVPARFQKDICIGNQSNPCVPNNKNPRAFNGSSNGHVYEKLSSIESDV

Take `FC(F)Oc1cc(-n2cc(COc3ccncn3)nn2)ccc1Cl` [Example 13, 4-[[1-[4-Chloro-3-(difluoromethoxy)phenyl]triazol-4-yl]methoxy]pyrimidine]: the IC50 was determined as 0.879 µM.

Regarding `FC(F)Oc1cc(-n2cc(COc3cccnn3)nn2)ccc1Cl` [Example 14, 3-[[1-[4-Chloro-3-(difluoromethoxy)phenyl]triazol-4-yl]methoxy]pyridazine], the IC50 was determined as 0.401 µM.

Turning to `COc1cc(-n2cc(COc3ncccn3)nn2)ccc1Cl` [Example 15, 2-[[1-(4-Chloro-3-methoxy-phenyl)triazol-4-yl]methoxy]pyrimidine], the concentration for half-maximal inhibition (IC50) stood at 0.699 µM.

For the compound `Cc1cnc(OCc2cn(-c3ccc(F)c(Br)c3)nn2)nc1` [Example 16, 2-[[1-(3-Bromo-4-fluoro-phenyl)triazol-4-yl]methoxy]-5-methylpyrimidine], the IC50 is 0.001 µM.

As to `Cc1ccnc(OCc2cn(-c3ccc(F)c(Br)c3)nn2)n1` [Example 17, 2-[[1-(3-Bromo-4-fluoro-phenyl)triazol-4-yl]methoxy]-4-methylpyrimidine], the IC50 stood at 0.01 µM.

On to `Cc1cc(C)nc(OCc2cn(-c3ccc(F)c(Br)c3)nn2)n1` [Example 18, 2-[[1-(3-Bromo-4-fluoro-phenyl)triazol-4-yl]methoxy]-4,6-dimethyl-pyrimidine], for which the IC50 amounted to 0.082 µM.

Turning to `Fc1cnc(OCc2cn(-c3ccc(F)c(Br)c3)nn2)nc1` [Example 19, 2-[[1-(3-Bromo-4-fluoro-phenyl)triazol-4-yl]methoxy]-5-fluoropyrimidine], the IC50 is 0.056 µM.

`COc1cc(-n2cc(COc3ncccn3)nn2)ccc1F` [Example 20, 2-[[1-(4-Fluoro-3-methoxy-phenyl)triazol-4-yl]methoxy]pyrimidine]: the IC50 came to 1 µM.

On to `Cc1ccnc(OCc2cn(-c3ccc(Cl)c(OC(F)F)c3)nn2)n1` [Example 21, 2-[[1-[4-Chloro-3-(difluoromethoxy)phenyl]triazol-4-yl]methoxy]-4-methyl-pyrimidine], for which the concentration for half-maximal inhibition (IC50) was found to be 0.002 µM.

As to `Cc1cnc(OCc2cn(-c3ccc(Cl)c(OC(F)F)c3)nn2)nc1` [Example 22, 2-[[1-[4-Chloro-3-(difluoromethoxy)phenyl]triazol-4-yl]methoxy]-5-methyl-pyrimidine], the IC50 came out at 0.002 µM.

`FC(F)Oc1cc(-n2cc(COc3cnccn3)nn2)ccc1Cl` [Example 23, 2-[[1-[4-Chloro-3-(difluoromethoxy)phenyl]triazol-4-yl]methoxy]pyrazine]: the half-inhibitory concentration (IC50) is 0.456 µM.

In the case of `Fc1ccc(-n2cc(CNc3ncccn3)nn2)cc1C(F)F` [Example 24, N-[[1-[3-(Difluoromethyl)-4-fluoro-phenyl]triazol-4-yl]methyl]pyrimidin-2-amine], the half-maximal inhibitory concentration (IC50) was 0.824 µM.

Turning to `Fc1ccc(-n2cc(COc3ncccn3)nn2)cc1C(F)F` [Example 25, 2-((1-(3-(difluoromethyl)-4-fluorophenyl)-1H-1,2,3-triazol-4-yl)methoxy)pyrimidine], the IC50 was determined as 0.05 µM.

As for `COc1cnc(OCc2cn(-c3ccc(Cl)c(OC(F)F)c3)nn2)nc1` [Example 26, 2-[[1-[4-Chloro-3-(difluoromethoxy)phenyl]triazol-4-yl]methoxy]-5-methoxy-pyrimidine], the concentration for half-maximal inhibition (IC50) is 0.003 µM.

Turning to `CCc1cnc(OCc2cn(-c3ccc(Cl)c(OC(F)F)c3)nn2)nc1` [Example 27, 2-[[1-[4-Chloro-3-(difluoromethoxy)phenyl]triazol-4-yl]methoxy]-5-ethyl-pyrimidine], the IC50 amounted to 0.009 µM.

In the case of `FC(F)Oc1cc(-n2cc(COc3ncc(Cl)cn3)nn2)ccc1Cl` [Example 28, 5-Chloro-2-[[1-[4-chloro-3-(difluoromethoxy)phenyl]triazol-4-yl]methoxy]pyrimidine], the IC50 was found to be 0.002 µM.

In the case of `COc1ccnc(OCc2cn(-c3ccc(Cl)c(OC(F)F)c3)nn2)n1` [Example 29, 2-[[1-[4-Chloro-3-(difluoromethoxy)phenyl]triazol-4-yl]methoxy]-4-methoxy-pyrimidine], the IC50 is 0.011 µM.

The record behind these values is US10233173B2, “Substituted 1,2,3-triazoles as NR2B-selective NMDA modulators” (JANSSEN PHARMACEUTICA NV, priority 2016, dated 2019).
